# Measured values published in PubChem BioAssay (NCI).
#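 Exposure lasted 48 hours, with cells grown in 96-well plates and compounds tested at five concentrations. GI50 marks 50% less growth. TGI: concentration producing complete growth inhibition.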
# Tests used:
# Assay in all cases: NCI tumour cell line growth inhibition, 48 h
# RXF 393 renal = system: RXF 393 renal
# SF-295 CNS = system: SF-295 CNS
# NCI-H23 lung = system: NCI-H23 lung
# BT-549 breast = system: BT-549 breast
# OVCAR-8 ovarian = system: OVCAR-8 ovarian
# A498 renal = system: A498 renal
# UACC-257 melanoma = system: UACC-257 melanoma
# UACC-62 melanoma = system: UACC-62 melanoma
# SR leukemia = system: SR leukemia
# MALME-3M melanoma = system: MALME-3M melanoma
SMILES,GI50 (RXF 393 renal) [µM],TGI (RXF 393 renal) [µM],GI50 (SF-295 CNS) [µM],TGI (SF-295 CNS) [µM],GI50 (NCI-H23 lung) [µM],TGI (NCI-H23 lung) [µM],GI50 (BT-549 breast) [µM],TGI (BT-549 breast) [µM],GI50 (OVCAR-8 ovarian) [µM],TGI (OVCAR-8 ovarian) [µM],GI50 (A498 renal) [µM],TGI (A498 renal) [µM],GI50 (UACC-257 melanoma) [µM],TGI (UACC-257 melanoma) [µM],GI50 (UACC-62 melanoma) [µM],TGI (UACC-62 melanoma) [µM],GI50 (SR leukemia) [µM],TGI (SR leukemia) [µM],TGI (MALME-3M melanoma) [µM],GI50 (MALME-3M melanoma) [µM]
O=C(c1ccccc1)c1ccccc1C(=O)c1ccccc1,47.8,> 100,31,> 100,34,> 100,32,> 100,34.5,> 100,4.34,> 100,40.5,> 100,29.7,> 100,41.7,> 100,,
O=C1NC(O)CCN1C1CC(O)C(CO)O1 (stereo not given),,> 100,,> 100,,> 100,,> 100,,> 100,,> 100,,> 100,,> 100,,> 100,> 100,
N#Cc1c(NCc2ccccc2)nc(NCc2ccccc2)c(C#N)c1-c1cccc(O)c1,13.8,34.9,2.92,13.2,11,37.4,10.1,35.8,19.2,52.2,2.01,5.77,> 100,> 100,2.1,7.04,2.09,7.48,32.5,10.1
c1ccc(-c2cnc3nc4ccccc4nc3n2)cc1,,,,25.3,,22,,29,,6.8,,27.1,,8.62,,15.4,,4.81,15.8,
Cn1c(O)c(N=NC(N)=S)c2ccccc21,32,> 100,27.1,> 100,> 100,> 100,> 100,> 100,54.8,> 100,97.7,> 100,71.6,> 100,> 100,> 100,90.1,> 100,,
C[C@]12CC[C@H]3[C@@H](CCC4=C[C@@H](OC5OCC(OC6OC(CO)C(O)C(O)C6O)C(O)C5O)CC[C@@]43C=O)[C@@]1(O)CCC2C1=CC(=O)OC1 (stereo not given in full),,1.2,,3.53,,1.08,,0.881,,2.76,,2.99,,,,4.29,,0.627,2.19,
O=C(Nc1ccccc1C(=O)Nc1nccs1)c1ccccc1,,,,> 100,,> 100,,> 100,,> 100,,> 100,,> 100,,> 100,,> 100,> 100,
C=C1C[C@@H]2[C@H](CC[C@]3(C)C(=O)CC[C@@H]23)[C@@]2(C)C=CC(=O)C=C12,,,28.5,74.5,16.5,44.3,28.9,> 100,6.93,> 24,> 50.8,> 90.3,,,8.11,30,> 54.4,> 79.9,> 73.4,> 43.9
CC1(C)N=C(N)N=C(N)N1c1ccc(OCCCCNC(=O)c2ccc(S(=O)(=O)F)cc2)c(Cl)c1,8.99,> 100,51.1,> 100,,,> 100,> 100,4.82,> 100,> 100,> 100,6.36,> 100,4.27,> 100,4.95,> 100,> 100,> 100
N=C1C(c2nc(-c3ccc(Br)cc3)cs2)=C(O)CN1CC1CCCO1 (stereo not given),> 100,> 100,> 100,> 100,> 100,> 100,> 100,> 100,,,> 100,> 100,> 100,> 100,> 100,> 100,> 100,> 100,> 100,> 100
COc1cc(/C=C/c2cc(/C=C/c3ccc(O)c(OC)c3)[nH]c(=O)n2)ccc1O,2.24,4.93,2.75,9.87,,,2.06,8.08,3.01,12.7,3.11,25.2,3.36,17.9,3.39,43.2,1.91,6.18,> 100,3.91
O=c1[nH]cnc2nc(-c3ccc(N(CCCl)CCCl)cc3)[nH]c12,15.8,50.7,1.57,6.5,31.7,> 100,84.8,> 100,8.89,> 100,22.2,70.3,,,0.507,71.6,> 100,> 100,> 100,33
COc1cc(CNC(=O)CCSc2nc3ccccc3c(=O)n2Cc2cc(OC)c(OC)c(OC)c2)cc(OC)c1OC,5.31,26,4.36,> 100,6.87,> 100,4.9,44.1,10,50.7,4.05,21.1,16.3,> 100,2.92,20.6,3.01,> 100,,
CC[C@H](C)[C@H](NC(=O)c1nccn1C)C(=O)N(C)[C@H](C[C@@H](OC(C)=O)c1nc(C(=O)N[C@@H](Cc2ccccc2)C[C@H](C)C(=O)OC)cs1)C(C)C,,,0.639,2.07,1.36,> 33.3,0.398,3.94,1.44,> 33.3,1.11,> 33.3,,,0.289,> 33.3,0.179,> 33.3,> 33.3,5.87
